Measured values published in US20060154236A1, “Computer-assisted analysis” (priority 2004, published 2006).
Read-outs that look alike come from different tables or passages of the source. Residues, ends and D or L forms follow the SMILES beside them. *: point of attachment. Cbz = O=C(OCc1ccccc1)*

Experiments:
[1] = test system: HeLa (human cancer) cells; test: Hierarchical clustering of compound profiles by titration-invariant similarity score (TISS); assay type: cell-based
Excerpt: When comparing drug mechanism, changes in specificity, and thus phenotype, are relevant but changes in affinity, and thus PEC, are not. […] We developed a titration-invariant similarity score (TISS) to allow comparison between dose-response profiles independent of starting dose.
Titration-invariant similarity score (TISS) for comparing descriptor and compound vectors. We developed a “titration-invariant” similarity score (TISS) to assess the similarity of compounds independent of the starting point of their titration series. The TISS between two compounds is calculated in three steps: (1) we define the notion of a titration sub-series for each compound to account for different possible starting concentrations (FIGS. 35 and 36B); (2) we define a correlation for pairs of these sub-series (FIG. 36B); (3) we define a similarity measure derived from the strongest correlation over a determined range of these sub-series (FIG. 36B).
(1) For each compound c, the complete set of z-scores across all descriptors and titrations defines a DxT-dimensional vector: Xc=(zc,l,l, . . . , zc,D,l, . . . , zc,l,T, . . . , zc,D,T), where D is the number of descriptors (=93) and T is the number of titrations (=13). In order to allow comparisons of compounds with different titration starting points, we define titration sub-series as follows: Xc(s)=(zc,l,l, . . . , zc,D,l, . . . , zc,l,T−s, . . . , zc,D,T−s) and Xc(−s)=(zc,l,s, . . . , zc,D,s, . . . , zc,l,T, . . . , zc,D,T). Intuitively, by truncating starting or ending titrations, these definitions allow us to “shift” the starting point for the titration series.
(2) For all compound vectors Xi and Xj, we define their s-correlation: xij(s)=<Xi, Xj>(s)=<Xi(s), Xj(−s)>/(∥Xi(s)∥ ∥Xj(−s)∥)
(we use the standard notation <A, B>=ΣiAiBi and ∥A∥^2=<A,A>). Thus, <Xi, Xj>(0) measures the standard correlation of vectors Xi and Xj, while <Xi, Xj>(1) drops the first titration for compound Xj and the last for Xi before measuring their correlation. For each s, we built a 200×200 such correlation matrix X(s)=(xij(s)) using all of the compounds from each of the two replicates.
(3) Given a range −S≦s≦S, we wish to look for the value of s that gives the highest correlation between two vectors.
Clustering compound and descriptor vectors. We performed standard hierarchical clustering of replicate-averaged compound (FIG. 33) or descriptor (FIG. 39) vectors using the pdist and linkage functions in Matlab. pdist was defined by the TISS for each pair of vectors. […] Compound 50 was not present in all datasets and so was also excluded.

[2] = test system: HeLa (human cancer) cells; test: Cytological dose-response profiling by automated fluorescence microscopy (KS statistic z-scores, 93 descriptors); assay type: cell-based; conditions: for response of compound profile (heat plot): 13-point titration
Method: The known drug set was chosen to cover common mechanisms of toxicity or therapeutic action in cancer and other diseases, and to include several groups with a common target (macromolecule or pathway) but unrelated structures. We analyzed thirteen 3-fold dilutions of each drug, covering a final concentration range on cells from micromolar to picomolar. (Table 3 and Materials & Methods). HeLa (human cancer) cells were cultured in 384-well plates to near confluence, treated with drugs for 20 hrs, fixed, and stained with fluorescent probes for various cell components and processes. We chose 11 distinct probes that covered a range of cell biology, multiplexing a DNA stain and two antibodies per well (the probe sets are: (SC35, anillin), (α-tubulin, actin), (phospho-p38, phospho-ERK), (p53, cFos), (phospho-CREB, calmodulin)). Using automated fluorescence microscopy, we collected images of up to ˜8000 cells from each well. 26 wells on each plate were treated only with DMSO to generate a control population. The experiment was performed twice in parallel to provide a replicate dataset. Image segmentation procedures were used to automatically identify nuclei and nuclear organelles, and cytoplasmic regions were approximated as an annulus surrounding each identified nucleus (FIG. 31A). For each cell, region, and probe, a set of descriptors was measured. These included measures of size, shape, and intensity, as well as ratios of intensities between regions (93 descriptors total, Table S3).
For profiling studies, it is useful to reduce each population of descriptor values to a single number. […] We devised a measure based on the Kolmogorov-Smirnov (KS) statistic, allowing nonparametric comparison of experimental and control distributions from the same plate (FIGS. 31B and 35). […] In particular, the relationship between z-score and the original physical measure may be non-linear.
Cell culture. 20 hours before compound addition, Hela cells grown in […] dishes were trypsinized, resuspended in DMEM supplemented with 10% FCS and 10 ug/mL penicillin/streptomycin, and plated in 384-well plates at an initial density of 3,000 cells per well, 40 uL per well. Compounds were purchased from Sigma (St. Louis, MO), Calbiochem (EMD Biosciences, San Diego, Calif.) and Tocris (Elliksville, MO) and are listed in Table 2. Compound stocks were prepared in DMSO and then arrayed on 384-well plates in 16 consecutive 1:3 serial dilutions in DMSO as outlined in Table 3. The highest and two lowest dilutions (rows A, 0 and P) were not used for subsequent analysis as the wells due to persistent edge effects, leaving us with a series of 13 dilutions. Each stock was diluted 16-fold in warmed culture medium, and 8 μl of this solution was added to the plated cells, resulting in a 96-fold final dilution. All conditions were performed in duplicate in separate plates. Cells were incubated at 37° C. for 20 hours, then fixed in 3% formaldehyde in PBS. All liquid handling was performed using a programmed TekBench (TekCel, Hopkinton, Mass.).
Markers. Five sets of markers were stained by standard immunofluorescence methods in this study.

[3] = test system: p53 and cFos; test: Single-cell analysis of nuclear p53 vs cFos intensity; assay type: cell-based, human; conditions: HeLa, 20 hrs, FIG. 34
Excerpt: FIG. 34 is a single-cell analysis showing differing patterns of dose-dependent p53 and cFos responses to different drugs. A. Scatter plot of average nuclear p53 intensity vs. average cFos intensity in a typical control well and representative image. The bright cells at the top of the image are in mitosis. B. Dose-dependent increases in response to MG132 shown in heat maps are correlated in scatter plots and images (orange nuclei). C. Dose-dependent increases in response to camptothecin shown in heat maps are anti-correlated in scatter plots and images. The black (cFos) and green (p53) heat map values for the highest dose reflect the contribution of apoptotic cells with negligible p53 and cFos nuclear staining.
Extensions of cytological profiling to reflect dependencies among descriptors will allow more sophisticated analysis of drug responses at a systems level. For example, both p53 and cFos, a transcription factor involved in MAP-kinase signalling, are involved in cell stress responses, but the interrelationship of the p53 and MAP-kinase pathways is poorly understood (B. Kaina, Biochem Pharmacol 66:1547 (Oct. 15, 2003); incorporated herein by reference). […]

[4] = test system: transcription; test: Preliminary in vitro transcription experiments; assay type: biochemical
[5] = unsupervised hierarchical clustering of the 61 responsive compounds
[6] = HeLa cells, 20 hrs, thirteen 3-fold dilutions, Y = profile response above signal threshold

Row | Compound | clustering of compound profile by TISS (FIG. 33) [1, 5] | Used in clustering (FIG. 33) [2, 6] | response of compound profile (heat plot) ([2]; HeLa, 20 hrs) | further results
1 | CC[C@H](C)[C@H]1NC(=O)[C@@H](NC(=O)[C@@H](CC(C)C)N(C)C(=O)[C@@H]2CCCN2C(=O)C(C)O)[C@@H](C)OC(=O)[C@H](Cc2ccc(OC)cc2)N(C)C(=O)[C@@H]2CCCN2C(=O)[C@H](CC(C)C)NC(=O)[C@@H](C)C(=O)[C@H](C(C)C)OC(=O)C[C@@H]1O (stereo partly shown) [Compound 98, Didemnin B] | clustered with ribosome inhibitors | Y | – | –
2 | CC[C@@]1(O)C(=O)OCc2c1cc1n(c2=O)Cc2cc3ccccc3nc2-1 [Compound 10, Camptothecin] | – | Y | – | relation of dose-dependent p53 and cFos responses in single cells [3]: anti-correlated; anillin nuclear level ([2]; HeLa, 20 hrs, G2 arrested state): marked nuclear accumulation; total DNA content / cell cycle response ([2]; HeLa, 20 hrs, as drug concentration increases): arrest with S/G2 DNA content; apoptosis ([2]; HeLa, 20 hrs, at the highest concentrations): widely induced; p53 induction ([2]; HeLa, 20 hrs, concentrations sufficient to promote G2 arrest): much less so; p53 induction ([2]; HeLa, 20 hrs, high concentrations): strongly induced; p53 response (z-score heat plot) ([2]; HeLa, 20 hrs, low doses, FIG. 31C): statistically significant responses
3 | CC[C@H]1CN2CCc3cc(OC)c(OC)cc3[C@@H]2C[C@@H]1C[C@H]1NCCc2cc(OC)c(OC)cc21 [Compound 96, Emetine] | clustered closely with their unblinded counterparts and compounds of similar reported mechanism | Y | significant responses | –
4 | CC(C)[C@H](CO)Nc1nc(Nc2cccc(Cl)c2)c2ncn(C(C)C)c2n1 [Compound 46, Purvalanol A] | did cluster | Y | – | –
5 | CC(C)C[C@@H](C=O)NC(=O)[C@H](CC(C)C)NC(=O)[C@H](CC(C)C)NC(=O)OCc1ccccc1 [Compound 38, MG132] (Cbz-Leu-Leu-Leu-aldehyde) | – | Y | – | relation of dose-dependent p53 and cFos responses in single cells [3]: increased correlated induction
6 | CCCCCc1ccc(-c2ccc(/C=C/C(N)=O)cc2)nc1 [Compound 100, Concentramide] | difficult to interpret | Y | strong responses | –
7 | O=C(CCCCCN1C(=O)c2cccc3cccc(c23)C1=O)NO [Compound 97, Scriptaid] | clustered closely with their unblinded counterparts and compounds of similar reported mechanism | Y | significant responses | –
8 | NC(=O)NO [Compound 94, Hydroxyurea] | clustered closely with their unblinded counterparts and compounds of similar reported mechanism | Y | significant responses | –
9 | CC[C@H](CO)Nc1nc(NCc2ccccc2)c2ncn(C(C)C)c2n1 [Compound 49, Roscovitine] | – | – | – | clustering of compound profile by TISS (FIG. 33) [1]: did cluster; Used in clustering (FIG. 33) [2]: Y
10 | Austocystin [Compound 99] | clusters with transcription and translation inhibitors | Y | strong responses | inhibition of transcription in vitro [4]: inhibits transcription in vitro
11 | C=C1[C@@H](O)[C@@H]2O[C@]3(CC[C@H](/C=C/[C@@H](C)[C@@H]4CC(C)=C[C@@]5(O[C@H](C[C@@](C)(O)C(=O)O)CC[C@H]5O)O4)O3)CC[C@H]2O[C@@H]1[C@@H](O)C[C@H](C)[C@H]1O[C@@]2(CCCCO2)CC[C@H]1C [Compound 41, Okadaic acid] | – | Y | – | –
12 | NS(=O)(=O)c1ccc(-n2nc(C(F)(F)F)cc2-c2ccc(Cl)cc2)cc1 [Compound 79, SC236] | – | Y | – | –
13 | Cn1cnc2c(NCc3ccccc3)nc(NCCO)nc21 [Compound 42, Olomucine] | did cluster | Y | – | –
14 | COc1cc2c(c(OC)c1OC)-c1ccc(OC)c(=O)cc1[C@@H](NC(C)=O)CC2 [Compound 13, Colchicine] | – | Y | – | –
